Test results reported in patent US11891601B2, “Method to enhance the transcription regulation of SUPT4H on genes containing repetitive nucleotide sequences” (National Yang-Ming University, priority 2018, dated 2024).

System: R-loops on (CAG)n-eGFP in ST14A cells
Assay: RNA/DNA immunoprecipitation (DIP) assay of R-loops in ST14A cells expressing Q7-GFP or Q81-GFP
Type: cell-based, rat
Conditions: ST14A tet cells, tropolone 60 μM for 12 hours
Experimental: Yeast cells were collected after culturing in 2% galactose-containing medium for 12 hours, and then grinded by glass beads in the presence of 300 μl extraction buffer (10 mM Tris-HCl pH 8.0, 10 mM EDTA, 200 mM NaCl, 1% SDS, 2% Triton X-100, 25 units RNase inhibitor). The nucleic acid mixture was subjected to sonication (Bioruptor UCD-200) and extracted by phenol (pH 8.0). Purified chromatin DNA and RNA, with or without RNase H treatment for 90 minutes, was precipitated by monoclonal antibody S9.6 bound to protein G agarose beads. […] The RNA/DNA hybrid (R-loop) signal was analyzed by qPCR and the Quantitative-Comparative CT (MCT) program. In yeast experiments, a pair of primers (Primer-B F and Primer-B R) were used to quantify R-loop signal in the vicinity of CAG repeats and the primer set AMP was used as a control. […] For Hdh^Q7/Q7 and Hdh^Q111/Q111, mouse HTT DIP primer set was used to quantify R-loop signal of the CAG repeating region and Tubal a DIP primer set was included as a control. […]
Please refer to FIG. 6. […] A relative high signal of R-loops was detected in (CAG)7-eGFP, but this signal is not increased by tropolone. […] RNA was extracted and analyzed by real-time RT-qPCR to measure the quantity of (CAG)n-GFP, SUPT4H and snRNA U6. […]

In the case of `O=c1cccccc1O` [Tropolone], the “R-loop signal by DIP assay, (CAG)8i-eGFP” value (long repeat) is reported as “significantly increased” and the “R-loop signal by DIP assay, (CAG)7-eGFP” value (short repeat (CAG)7-eGFP) is reported as “not increased”.
